Reference: patent US20140235774A1, “FLUORESCENT COMPOUND, METHOD FOR PRODUCING THE SAME, AND FLUORESCENT RESIN COMPOSITION” (Shin-Etsu Chemical Co., Ltd., priority 2013, published 2014)
≈ marks a conversion by molar mass, not a printed value.

How the values were obtained:
Format in all cases: physicochemical
[1] = Ultraviolet-visible absorption spectrum in solvent
Method: (§1) The ultraviolet-visible absorption spectrum and the fluorescent spectrum of Compound 1 were measured in ethanol. The longest absorption maximum wavelength was 359 nm, the molar absorbance coefficient was 6.50×10^4, and the maximum fluorescent wavelength was 410 nm (excitation wavelength: 359 nm).
(§2) The ultraviolet-visible absorption spectrum and the fluorescent spectrum of Compound 2 were measured in ethanol. The longest absorption maximum wavelength was 359 nm, the molar absorbance coefficient was 7.88×10^4, and the maximum fluorescent wavelength was 410 nm (excitation wavelength: 359 nm).
as §1, with “3” for “1”, “tetrahydrofuran.” for “ethanol.”, “363” for “359”, “2.65×10^4,” for “6.50×10^4,”, “413” for “410”
as §1, with “4” for “1”, “tetrahydrofuran.” for “ethanol.”, “363” for “359”, “2.83×10^4,” for “6.50×10^4,”, “413” for “410”, “363 nm)” for “359 nm).”

[2] = Fluorescent spectrum in solvent
Method: as §1, §2
as §1, with “3” for “1”, “tetrahydrofuran.” for “ethanol.”, “363” for “359”, “2.65×10^4,” for “6.50×10^4,”, “413” for “410”
as §1, with “4” for “1”, “tetrahydrofuran.” for “ethanol.”, “363” for “359”, “2.83×10^4,” for “6.50×10^4,”, “413” for “410”, “363 nm)” for “359 nm).”

[3] = Solubility in transparent silicone resin SIM-360 base compound (portion-wise addition until transparent); settings: for solubility in the SIM-360 base compound: room temperature, with stirring
Method: Into a glass vial, 10.1 mg of Compound 1 produced in Example 1 was weighed and added with a transparent silicone resin, the SIM-360 base compound (produced by Shin-Etsu Chemical Co., Ltd.) portion-wise at room temperature with stirring. Dissolution was determined when the solution turned transparent. The solubility was calculated to be 1 mmol/L. To this mixture, 10% by mass of a curing agent was added on the basis of the base compound and mixed. After defoaming, the mixture was heated at 150° C. for 30 minutes to be cured, giving a fluorescent silicone resin composition. It was possible to change the concentration of Compound 1 freely as long as the concentration was less than or equal to the above-described concentration.

[4] = in tetrahydrofuran, excitation wavelength 363 nm
[5] = in ethanol, excitation wavelength 359 nm

| Compound | longest absorption maximum wavelength ([1]; in tetrahydrofuran) [nm] | molar absorbance coefficient ([1]; in tetrahydrofuran) | maximum fluorescent wavelength [2, 4] [nm] | solubility in the SIM-360 base compound [3] [µM] | longest absorption maximum wavelength ([1]; in ethanol) [nm] | molar absorbance coefficient ([1]; in ethanol) | maximum fluorescent wavelength [2, 5] [nm] | solubility in the SIM-360 base compound (result in words) ([3]; measured as in Example 6) |
| --- | --- | --- | --- | --- | --- | --- | --- | --- |
| C[Si](C)(C)O[Si](C)(C)c1cccc(N(c2ccc(-c3ccc(N(c4ccccc4)c4ccc(-c5ccc(N(c6ccccc6)c6ccccc6)cc5)cc4)cc3)cc2)c2ccc(-c3ccc(N(c4ccccc4)c4ccc(-c5ccc(N(c6ccccc6)c6ccccc6)cc5)cc4)cc3)cc2)c1 [Compound 4, N,N-bis[4′-(N′-phenyl-N′-4′-diphenylaminobiphenyl-4-yl)biphenyl-4-yl]-3-(pentamethyldisiloxan-1-yl)aniline] | 363 | 2.83×10^4 | 413 | 100 (≈ 136 µg/mL) |  |  |  |  |
| C[Si](C)(C)O[Si](C)(O[Si](C)(C)C)c1cccc(N(c2ccc(-c3ccc(N(c4ccccc4)c4ccc(-c5ccc(N(c6ccccc6)c6ccccc6)cc5)cc4)cc3)cc2)c2ccc(-c3ccc(N(c4ccccc4)c4ccc(-c5ccc(N(c6ccccc6)c6ccccc6)cc5)cc4)cc3)cc2)c1 [Compound 3, N,N-bis[4′-(N′-phenyl-N′-4′-diphenylaminobiphenyl-4-yl)biphenyl-4-yl]-3-(1-trimethylsiloxy-1,3,3,3-tetramethyldisiloxan-1-yl)aniline] | 363 | 2.65×10^4 | 413 | 100 (≈ 144 µg/mL) |  |  |  |  |
| Cc1ccc(N(c2ccc(C)cc2)c2ccc(-c3ccc(N(c4ccc(-c5ccc(N(c6ccc(C)cc6)c6ccc(C)cc6)cc5)cc4)c4cccc([Si](C)(O[Si](C)(C)C)O[Si](C)(C)C)c4)cc3)cc2)cc1 [Compound 1, N,N-bis[4′-(N′,N′-di-4-tolylamino)biphenyl-4-yl]-3-(1-trimethylsiloxy-1,3,3,3-tetramethyldisiloxan-1-yl)aniline] |  |  |  | 1000 (≈ 1010 µg/mL) | 359 | 6.50×10^4 | 410 |  |
| Cc1cccc(N(c2ccc(-c3ccc(N(c4ccccc4)c4ccc(-c5ccc(N(c6ccccc6)c6ccc(-c7ccc(N(c8cccc(C)c8)c8cccc(C)c8)cc7)cc6)cc5)cc4)cc3)cc2)c2cccc(C)c2)c1 [Compound 6, reference compound] |  |  |  |  |  |  |  | not dissolved at all |
| C[Si](C)(C)O[Si](C)(O[Si](C)(C)C)c1cccc(N(c2ccccc2)c2ccc(-c3ccc(N(c4ccccc4)c4ccc(-c5ccc(N(c6ccccc6)c6ccc(-c7ccc(N(c8ccccc8)c8cccc([Si](C)(O[Si](C)(C)C)O[Si](C)(C)C)c8)cc7)cc6)cc5)cc4)cc3)cc2)c1 [Compound 2, N,N′-bis[phenyl-3-(1-trimethylsoxy-1,3,3,3-tetramethyldisiloxan-1-yl)phenylaminobiphenyl-4′-yl]-N,N-diphenylbenzidine] |  |  |  | 500 (≈ 708 µg/mL) | 359 | 7.88×10^4 | 410 |  |
